Structures can show the parent of a compound that is named as a salt.
Key:
[1] = test system: human fetal astrocytes; test: A1 v A2 marker activation, RNA-seq of H2O2-stimulated astrocytes; type: cell-based; conditions: 2.5 μM, 24 hrs, H2O2 (50 μM) stimulated
Procedure: The treated cells were stimulated with H2O2 (50 μM) for 20 min and the RNA extracted 1 day later and sequenced using the Illumina HiSeq 2000 with an average of 39.3 million reads per sample. Reads were mapped to the GHch38/hg38 genome. 13,968 protein-coding genes had detectable expression on average among the 6 samples. Differentially expressed genes (DEGs) were identified using negative binomial models with FDR threshold of <0.10 and fold change (FC) criteria (FC>1.30 or FC<0.77). Gene set enrichment testing was performed using public database annotations. Motif enrichment with respect to DEG up-stream regions was characterized using semiparametric generalized additive logistics models. The overlap between the identified DEGs and MS-associated genes, i.e., genes from MS patients and genes linked to inflammatory (A1) and ischemic (A2) astrogliosis.

[2] = test system: NRF2 (NF-E2-related factor 2) transcription factor; test: Cignal ARE Reporter Assay, NRF2-mediated luciferase gene expression in HEK293 cells; type: cell-based; conditions: HEK293, 24 h
Procedure: 2017 December; 23(14):1875-1883. doi: 10.1177/1352458517690617. Epub 2017 Feb.
The experiments were performed using HEK293 cells (Sigma, St. Louis, Mo.; cat. #85120602) seeded at 50,000 per well in a 96 well white opaque-wall tissue culture plates. Cells were transfected by mixing Cignal Reporter Assay firefly/renilla luciferase constructs (cat. # CCS-5020L; Qiagen) with Attractene Transfection Reagent (Qiagen) in Opti-MEM (ThermoFisher Scientific, Waltham, Mass.) supplemented with 1% MEM Non-essential amino acid solution without L-glutamine (Sigma; cat. #M7145). After medium change test materials were added and their effect on NRF2 induction was quantified 24 h later with the Dual-Luciferase Reporter Assay System (cat. #E1960; Promega, Madison, Wis.).
The ARE (antioxidant response element) reporter is a mixture of a Nrf2-responsive luciferase construct encoding the firefly luciferase reporter gene under the control of a minimal (m)CMV promoter and tandem repeats of the ARE transcriptional response element, and a constitutively expressing Renilla element (40:1), which acts as an internal control for normalizing transfection efficiencies and monitoring cell viability. […] Signal quantification was obtained with ThermoFisher Scientific Luminoskan Ascent Microplate Luminometer.

[3] = test system: NFE2L2 (NRF2) binding sites; test: Enrichment of NFE2L2 (NRF2) and other binding sites upstream of IDMF-regulated genes; type: cell-based, human
Procedure: RNA sample processing and microarray hybridizations were performed using the Affymetrix Human Genome U133 Plus 2.0 array platform. DNA microarray samples evaluated included IDMF- and vehicle-treated KCs (n=2 replicates per group). Samples were normalized using the robust multichip average (RMA) algorithm. Identification of probe sets with detectable expression was performed using the MAS 5.0 method, which identifies probe sets with above-background expression based upon the Wilcoxon signed rank test. To limit redundancy in downstream analyses, a single probe set was chosen to represent each protein-coding human gene featured on the microarray platform. This representative was chosen as the probe set with highest expression for each protein-coding human gene. These probe sets were then additionally filtered to include only those with detectable expression in at least 1 of the 4 samples (P<0.05, Wilcoxon signed rank test). Overall, this yielded a total of 12330 protein-coding genes that were included in analyses, with each gene represented by a single representative probe set. Bayesian linear models and moderated t-statistics were then used to evaluate differential expression for each of the 12330 genes (IDMF vs. CTL treatment; R package: limma). To control the false discovery rate (FDR), raw p-values generated from linear model analyses were adjusted using the Benjamini-Hochberg method.
As noted in the background section above, the transcription factor nuclear factor (erythroid-derived 2)-like 2 (NFE2L2/NRF2) has previously been associated with multiple sclerosis. In this study, IDMF-regulated genes were evaluated to determine the extent to which IDMF led to the enrichment of NFE2L2/NRF2 binding sites in promoter-proximal regions. For these analyses, a NFE2L2/NRF2 binding site was obtained from the JASPAR database (JASPAR ID: MA0150). This binding site partially matches the consensus sequence 5-[A/G]TGAC—AGCA-3: additional information can be obtained from http://jaspar.genereg.net/cgi-bin/jaspar_db.pl?ID=MA0150.1&rm=present&collection=CORE. Tests for enrichment were performed by scanning regions 1 kb, 2 kb or 5 kb upstream of protein-coding genes, including either all sequence (conserved=No) or only sequences conserved among mammalian species (conserved=Yes). A positive Z statistic indicates a trend towards increased NFE2L2 (NRF2) binding sites in sequences upstream of IDMF-increased […] (DEGs), as compared to all other expressed genes). P-values indicate the significance of the reported Z statistic (semiparametric generalized additive logistic models). Predicted targets include IDMF-increased DEGs with the NFE2L2 (NRF2) binding site identified within the scanned upstream region.

Compound: COC(=O)/C=C/C(=O)O[C@H]1CO[C@H]2[C@@H]1OC[C@H]2OC(=O)/C=C/C(=O)OC [IDMF, isosorbide di-(methyl fumarate)]
- ICAM1 expression [1]: downregulate
- expression of genes linked to A2-polarization [1]: tended to increase the expression
- expression of genes linked to pan-reactive gliosis [1]: decreasing
- Fold Change v. water control (1), NRF2-mediated luciferase gene expression ([2]; 1 μg/ml): 2.78 fold
- Fold Change v. water control (1), NRF2-mediated luciferase gene expression ([2]; 10 μg/ml): 4.61 fold
- enrichment of NF-kappaB binding sites upstream of IDMF-decreased genes ([3]; FDR<0.10 with FC<0.67, P=1.16E-08): strongly enriched
- Z Statistic, enrichment of NFE2L2 (NRF2) binding sites upstream of IDMF-increased DEGs ([3]; Region 1 kb, Conserved No): 4.74
- Z Statistic, enrichment of NFE2L2 (NRF2) binding sites upstream of IDMF-increased DEGs ([3]; Region 1 kb, Conserved Yes): 5.91
- Z Statistic, enrichment of NFE2L2 (NRF2) binding sites upstream of IDMF-increased DEGs ([3]; Region 2 kb, Conserved No): 3.37
- Z Statistic, enrichment of NFE2L2 (NRF2) binding sites upstream of IDMF-increased DEGs ([3]; Region 2 kb, Conserved Yes): 3.21
- Z Statistic, enrichment of NFE2L2 (NRF2) binding sites upstream of IDMF-increased DEGs ([3]; Region 5 kb, Conserved No): 2.11
- Z Statistic, enrichment of NFE2L2 (NRF2) binding sites upstream of IDMF-increased DEGs ([3]; Region 5 kb, Conserved Yes): 1.05
